pIC50: −log10 of the molar value. Where only a bound is given, the exact number is not on record here.

The target of this assay is T1, Glucocorticoid Receptor (GR) (Homo sapiens, UniProt P04150).
T1 construct: purchased Invitrogen P2893
T1 sequence (P04150 1-777): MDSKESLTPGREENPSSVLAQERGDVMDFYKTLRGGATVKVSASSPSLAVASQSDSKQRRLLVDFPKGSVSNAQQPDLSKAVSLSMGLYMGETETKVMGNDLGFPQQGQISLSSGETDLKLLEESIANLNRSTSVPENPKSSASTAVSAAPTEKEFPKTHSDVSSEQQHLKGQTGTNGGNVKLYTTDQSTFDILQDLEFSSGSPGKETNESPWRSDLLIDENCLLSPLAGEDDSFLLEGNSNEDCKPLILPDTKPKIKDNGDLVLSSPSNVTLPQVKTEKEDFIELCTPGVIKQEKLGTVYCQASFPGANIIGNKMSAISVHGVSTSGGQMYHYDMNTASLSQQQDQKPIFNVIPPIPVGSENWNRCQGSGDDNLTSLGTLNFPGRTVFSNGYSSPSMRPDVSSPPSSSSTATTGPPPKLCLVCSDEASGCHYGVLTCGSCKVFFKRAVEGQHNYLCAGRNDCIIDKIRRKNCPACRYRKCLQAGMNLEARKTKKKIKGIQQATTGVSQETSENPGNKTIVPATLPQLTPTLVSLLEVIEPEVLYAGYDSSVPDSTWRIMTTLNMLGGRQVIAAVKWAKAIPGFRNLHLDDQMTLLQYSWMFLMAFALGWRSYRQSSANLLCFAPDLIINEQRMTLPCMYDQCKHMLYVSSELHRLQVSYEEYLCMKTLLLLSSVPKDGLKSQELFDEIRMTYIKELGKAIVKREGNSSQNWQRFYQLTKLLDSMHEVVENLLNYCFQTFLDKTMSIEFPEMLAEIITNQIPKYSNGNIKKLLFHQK
In words: GR Florescence Polarization Assay (PolarScreen Glucocorticoid Receptor Competitor Assay, Red). The settings on record: Fluorescense polarization binding ranges; competition with fluorescent glucocorticoid, incubated overnight at 4° C. The procedure:
GR Florescence Polarization Assay Florescence polarization assays were carried out using the PolarScreen™ Glucocorticoid Receptor Competitor Assay, Red from Invitrogen (P2893). The assay buffer was prepared according to the manufacturer's protocol and used to dilute the fluorescent glucocorticoid and GR. Compounds were prepared and serial diluted 1:4 in DMSO. Compound, fluorescent glucocorticoid and GR were added in a final volume of 20 μL and incubated overnight at 4° C. Fluorescent polarization was measured on the Perkinelmer Envision®.
In general, pIC50 refers to the IC50 on a negative log10 scale, so that one unit is a factor of ten. The low end stands for a high IC50, the high end for a low IC50. `Cc1ncccc1NC(=O)c1ccc2c(c1)COC[C@@H]1C[C@@](O)(C(F)(F)F)CC[C@@]21Cc1ccccc1` [Example 116, (7aR,9R,11aS)-11a-Benzyl-9-hydroxy-N-(2-methylpyridin-3-yl)-9-(trifluoromethyl)-5,7,7a,8,9,10,11,11a-octahydrodibenzo[c,e]oxepine-3-carboxamide]: the pIC50 was 6.00 to 7.00. On to `O=C1CC[C@@]2(Cc3ccccc3)C(=O)CCCC[C@H]2C1.O=C1CC[C@]2(Cc3ccccc3)C(=O)CCCC[C@@H]2C1` [Example 36, (4aS,9aS)-4a-Benzyl-octahydro-benzocycloheptene-2,5-dione; compound with (4aR,9aR)-4a-benzyl-octahydro-benzocycloheptene-2,5-dione], for which the negative-log IC50 (pIC50) is under 5.00.

`CC[C@@]1(O)CC[C@@]2(Cc3ccccc3)c3ccc(C(=O)N(C)c4cccnc4C)cc3CCC[C@H]2C1` [Example 89, (7aS,9R,11aS)-11a-Benzyl-9-ethyl-9-hydroxy-6,7,7a,8,9,10,11,11a-octahydro-5H-dibenzo[a,c]cycloheptene-3-carboxylic acid methyl-(2-methyl-pyridin-3-yl)-amide] showed a pIC50 of 6.00 to 7.00. The molecule `CC[C@@]1(O)CC[C@@]2(Cc3ccccc3)c3ccc(C(=O)NCCN4CCOCC4)cc3CCC[C@H]2C1` [Example 84] showed a pIC50 of under 5.00.

In turn, `CCC[C@@]1(O)CC[C@@]2(CC)c3ccc(-c4nc5ccccc5[nH]4)cc3CCC[C@H]2C1` (racemic) [Example 146, (3R,4aS,11bR)-9-(1H-Benzoimidazol-2-yl)-11b-ethyl-3-propyl-2,3,4,4a,5,6,7,11b-octahydro-1H-dibenzo[a,c]cyclohepten-3-ol; compound with (3S,4aR,11bS)-9-(1H-benzoimidazol-2-yl)-11b-ethyl-3-propyl-2,3,4,4a,5,6,7,11b-octahydro-1H-dibenzo[a,c]cyclohepten-3-ol] showed a pIC50 of 6.00 to 7.00.

In turn, `CCC[C@@]1(O)CC[C@@]2(Cc3ccccc3)c3ccc(C(=O)Nc4cccnc4C)cc3CCC[C@H]2C1` (racemic) [Example 31, (7aS,9R,11aS)-11a-Benzyl-9-hydroxy-9-propyl-6,7,7a,8,9,10,11,11a-octahydro-5H-dibenzo[a,c]cycloheptene-3-carboxylic acid (2-methyl-pyridin-3-yl)-amide; compound with (7aR,9S,11aR)-11a-benzyl-9-hydroxy-9-propyl-6,7,7a,8,9,10,11,11a-octahydro-5H-dibenzo[a,c]cycloheptene-3-carboxylic acid (2-methyl-pyridin-3-yl)-amide] had a negative-log IC50 (pIC50) of over 7.00.

As to `Cc1ncccc1NC(=O)c1ccc2c(c1)CCC[C@H]1C[C@@](O)(CC(C)C)CC[C@@]21CC(F)(F)F` (racemic) [Example 63, (7aS,9S,11aS)-9-Hydroxy-9-isobutyl-11a-(2,2,2-trifluoro-ethyl)-6,7,7a,8,9,10,11,11a-octahydro-5H-dibenzo[a,c]cycloheptene-3-carboxylic acid (2-methyl-pyridin-3-yl)-amide; compound with (7aR,9R,11aR)-9-hydroxy-9-isobutyl-11a-(2,2,2-trifluoro-ethyl)-6,7,7a,8,9,10,11,11a-octahydro-5H-dibenzo[a,c]cycloheptene-3-carboxylic acid (2-methyl-pyridin-3-yl)-amide], the pIC50 was over 7.00. The molecule `Cc1ncccc1NC(=O)c1ccc2c(c1)CCC[C@H]1C[C@@](O)(COc3ccccc3)CC[C@@]21Cc1ccccc1` (racemic) [Example 103] gave a negative logarithm of the IC50 (pIC50) of over 7.00. Turning to `CC[C@@]12CC[C@](O)(CC3CC3)C[C@@H]1CCCc1cc(C(=O)Nc3cccnc3C)ccc12` [Example 51], the pIC50 is over 7.00. For `Cc1ncccc1NC(=O)c1ccc2c(c1)C(=O)OC[C@@H]1C[C@@](O)(C(F)(F)F)CC[C@@]21Cc1ccccc1` [Example 115, (7aR,9R,11aS)-11a-Benzyl-9-hydroxy-N-(2-methylpyridin-3-yl)-5-oxo-9-(trifluoromethyl)-5,7,7a,8,9,10,11,11a-octahydrodibenzo[c,e]oxepine-3-carboxamide] the value was 6.00 to 7.00; for `O=C1CC[C@@]2(Cc3ccccc3)c3ccc(O)cc3CCC[C@H]2C1.O=C1CC[C@]2(Cc3ccccc3)c3ccc(O)cc3CCC[C@@H]2C1` [Example 4, (4aS,11bS)-11b-Benzyl-9-hydroxy-1,2,4,4a,5,6,7,11b-octahydro-dibenzo[a,c]cyclohepten-3-one; compound with (4aR,11bR)-11b-benzyl-9-hydroxy-1,2,4,4a,5,6,7,11b-octahydro-dibenzo[a,c]cyclohepten-3-one], 6.00 to 7.00; for `CCCOC[C@@]1(O)CC[C@@]2(Cc3ccccc3)c3ccc(C(=O)Nc4cccnc4C)cc3CCC[C@H]2C1` [Example 98], over 7.00.

In turn, `Cc1ncccc1NC(=O)c1ccc2c(c1)CCC[C@H]1C[C@@](O)(COC3CCOCC3)CC[C@@]21Cc1ccccc1` (racemic) [Example 102] gave a pIC50 of over 7.00. In the case of `CC[C@@]1(O)CC[C@@]2(Cc3ccccc3)c3ccc(C(=O)Nc4ncc(C)nc4C)cc3CCC[C@H]2C1` [Example 69] it was over 7.00. `CC[C@@]1(O)CC[C@@]2(Cc3ccccc3)c3ccc(C(=O)Nc4cccc(N)c4)cc3CCC[C@H]2C1` [Example 142, (7aS,9R,11aS)-11a-Benzyl-9-ethyl-9-hydroxy-6,7,7a,8,9,10,11,11a-octahydro-5H-dibenzo[a,c]cycloheptene-3-carboxylic acid (3-amino-phenyl)-amide] had a negative logarithm of the IC50 (pIC50) of over 7.00. With `COc1ccc2c(c1)CCCC1=CC(=O)CCC12Cc1ccccc1` (stereo not shown) [Example 1, 11b-Benzyl-9-methoxy-1,2,5,6,7,11b-hexahydro-dibenzo[a,c]cyclohepten-3-one], the negative logarithm of the IC50 (pIC50) was 6.00 to 7.00. Consider `CCC[C@@]1(O)CC[C@@]2(CC)c3ccc(C(=O)Nc4cccnc4C)cc3OCC[C@H]2C1` (single isomer, unassigned) [Example 121], for which the pIC50 is over 7.00. `CCC[C@]1(O)CC[C@]2(CC)c3ccc(C(=O)Nc4cccnc4C)cc3C=CC[C@@H]2C1` (single isomer, unassigned) [Example 130] gave a pIC50 of over 7.00. Consider `CC[C@@]12CC[C@](O)(COCC(F)(F)F)C[C@@H]1CCCc1cc(C(=O)Nc3cccnc3C)ccc12` (racemic) [Example 92, (7aS,9R,11aR)-11a-ethyl-9-hydroxy-9-(2,2,2-trifluoro-ethoxymethyl)-6,7,7a,8,9,10,11,11a-octahydro-5H-dibenzo[a,c]cycloheptene-3-carboxylic acid (2-methyl-pyridin-3-yl)-amide: compound with (7aR,9S,11aS)-11a-ethyl-9-hydroxy-9-(2,2,2-trifluoro-ethoxymethyl)-6,7,7a,8,9,10,11,11a-octahydro-5H-dibenzo[a,c]cycloheptene-3-carboxylic acid (2-methyl-pyridin-3-yl)-amide], for which the pIC50 is over 7.00. `Cc1ncccc1NC(=O)c1ccc2c(c1)CCC[C@H]1C[C@@](O)(CO)CC[C@@]21Cc1ccccc1` (racemic) [Example 104] had a negative logarithm of the IC50 (pIC50) of 6.00 to 7.00. With `CC[C@@]1(O)CC[C@@]2(Cc3ccccc3)c3ccc(C(=O)Nc4ccc(-c5ccn[nH]5)nc4C)cc3CCC[C@H]2C1` [Example 87, (7aS,9R,11aS)-11a-Benzyl-9-ethyl-9-hydroxy-6,7,7a,8,9,10,11,11a-octahydro-5H-dibenzo[a,c]cycloheptene-3-carboxylic acid [2-methyl-6-(2H-pyrazol-3-yl)-pyridin-3-yl]-amide], the negative logarithm of the IC50 (pIC50) is over 7.00. For `Cc1ncccc1NC(=O)c1ccc2c(c1)CCC[C@H]1C[C@@](O)(COCC(F)(F)F)CC[C@@]21Cc1ccccc1` (racemic) [Example 95] the value was over 7.00; for `CCC[C@]1(O)CC[C@]2(CC)c3ccc(C(=O)Nc4cccnc4C)cc3C(=O)CC[C@@H]2C1` (single isomer, unassigned) [Example 62], over 7.00; for `CCC[C@]1(O)CC[C@]2(CC)c3ccc(C(=O)Nc4cccnc4C)cc3COC[C@@H]2C1` (single isomer, unassigned) [Example 137], 5.00 to 6.00. For the molecule `CC[C@]1(O)CC[C@]2(Cc3ccccc3)c3ccc(C(=O)Nc4cccnc4C)cc3CCC[C@@H]2C1` (single isomer, unassigned) [Example 15], the pIC50 is 6.00 to 7.00.
